Reference: patent US8022239B2, “Mechanism-based inactivators of autotaxin” (The University of Memphis Research Foundation, priority 2008, dated 2011)

Biological target: T1, autotaxin (ATX) (Homo sapiens, UniProt Q13822)
T1 construct: concentrated conditioned serum-free medium (CCM) from MDA MB-435 cells as the source of ATX; endogenous in cells; host or cells: MDA-MB-435 cells (serum-free conditioned medium, concentrated ~10 fold)
Assay: Autotaxin inactivation analysis: ATX-mediated hydrolysis of FS-3 (fluorescence), concentrated conditioned medium from MDA MB-435 cells as ATX source
Type: biochemical
Settings: FS-3 substrate
Protocol: The test protocol was as follows:
MDA-MB-435 cells were cultured at 37° C. and 5% CO2 in Dulbecco's Modified Eagle Medium (DMEM) (MediaTech, Herndon, Va.) containing 5% fetal bovine serum (Hyclone, Logan, Utah), 100 U/ml penicillin, 100 μg/ml streptomycin (Hyclone, Logan, Utah) and 292 μg/ml L-glutamine (Hyclone, Logan, Utah). Cells were grown to ˜80% confluence at which time the cells were washed twice with sterile phosphate buffered saline prior to the addition of serum free DMEM containing L-glutamine. Conditioned medium was collected after 24-30 hours, supplemented with 20% ethylene glycol and was clarified by centrifugation at 3000×g and 4° C. for 10 min. The media was concentrated ˜10 fold and buffer exchanged into Tris (50 mM, pH 7.4) containing 20% ethylene glycol using an Amicon 8050 cell fitted with a PM30 filter (MILLIPORE®, Billerica, Mass.). Aliquots of concentrated conditioned media were stored at 4° C. until needed.
ATX inhibition was assayed using FS-3 (Echelon Biosciences, Inc., Salt Lake City, Utah, USA) as a substrate and ˜10 times concentrated conditioned serum-free medium (CCM) from MDA MB-435 cells as the source of ATX. Assays were performed in 96-well plates with CCM comprising one-third of the total volume and final FS-3 and charcoal-stripped fatty acid free BSA concentrations of 1 and 30 μM in assay buffer (1 mM each CaCl2 and MgCl2, 5 mM KCl, 140 mM NaCl, 50 mM Tris pH 8.0). Fluorescence was read at 5 minute intervals by a Synergy2 system (BioTek, Winooski, Vt.) with excitation and emission wavelengths of 485 and 538 nm, respectively. […] Fluorescence readings were normalized to vehicle control after subtraction of fluorescence in the absence of CCM. Data are shown as the mean±S.D. of at least three wells.

[1] = 3 uM, time 0 hour, low % response = effective inhibition

CCCCCCCCCCCCOP(=O)(O)Oc1ccc(CF)cc1 [Example 8, (12:0)-p-monofluorophosphodiester]
Fluorescence (% Response) [1]: 99.4% | Fluorescence (% Response) (3 uM, time 1 hour): 70.0% | Fluorescence (% Response) (3 uM, time 3 hours): 52.2% | Fluorescence (% Response) (3 uM, time 6 hours): 40.6% | Fluorescence (% Response) (30 uM, time 0 hour): 89.1% | Fluorescence (% Response) (30 uM, time 1 hour): 63.0% | Fluorescence (% Response) (30 uM, time 3 hours): 48.4% | Fluorescence (% Response) (30 uM, time 6 hours): 37.7%

CCCCCCCCCCCCOP(=O)(O)Oc1ccc(C(F)F)cc1 [Example 7, (12:0)-p-difluorophosphodiester]
Fluorescence (% Response) [1]: 93.9% | Fluorescence (% Response) (3 uM, time 1 hour): 64.5% | Fluorescence (% Response) (3 uM, time 3 hours): 48.3% | Fluorescence (% Response) (3 uM, time 6 hours): 37.0% | Fluorescence (% Response) (30 uM, time 0 hour): 52.0% | Fluorescence (% Response) (30 uM, time 1 hour): 36.2% | Fluorescence (% Response) (30 uM, time 3 hours): 29.4% | Fluorescence (% Response) (30 uM, time 6 hours): 24.9%

CCCCCCCCCCCCCCCCCCOP(=O)(O)Oc1ccc(CF)cc1 [Example 2, (18:0)-p-monofluorophosphodiester]
Fluorescence (% Response) [1]: 83.3% | Fluorescence (% Response) (3 uM, time 1 hour): 47.9% | Fluorescence (% Response) (3 uM, time 3 hours): 28.1% | Fluorescence (% Response) (3 uM, time 6 hours): 25.0% | Fluorescence (% Response) (30 uM, time 0 hour): 57.3% | Fluorescence (% Response) (30 uM, time 1 hour): 35.4% | Fluorescence (% Response) (30 uM, time 3 hours): 9.4% | Fluorescence (% Response) (30 uM, time 6 hours): −2.1%

CCCCCCCCCCCCCCCCOP(=O)(O)Oc1ccc(C(F)F)cc1 [Example 3, (16:0)-p-difluorophosphodiester]
Fluorescence (% Response) [1]: 94.8% | Fluorescence (% Response) (3 uM, time 1 hour): 60.4% | Fluorescence (% Response) (3 uM, time 3 hours): 44.8% | Fluorescence (% Response) (3 uM, time 6 hours): 34.4% | Fluorescence (% Response) (30 uM, time 0 hour): 71.9% | Fluorescence (% Response) (30 uM, time 1 hour): 37.5% | Fluorescence (% Response) (30 uM, time 3 hours): 19.0%

CCCCCCCCCCCCCCCCCCOP(=O)(O)Oc1ccc(C(F)F)cc1 [Example 1, (18:0)-p-difluorophosphodiester]
Fluorescence (% Response) (30 uM, time 0 hour): 96.1% | Fluorescence (% Response) (100 uM, time 0 hour): 94.1%

CCCCCCCCCCCCCCOP(=O)(O)Oc1ccc(C(F)F)cc1 [Example 5, (14:0)-p-difluorophosphodiester]
Fluorescence (% Response) [1]: 92.5% | Fluorescence (% Response) (3 uM, time 1 hour): 57.1% | Fluorescence (% Response) (3 uM, time 3 hours): 42.7% | Fluorescence (% Response) (3 uM, time 6 hours): 31.2% | Fluorescence (% Response) (30 uM, time 0 hour): 24.5% | Fluorescence (% Response) (30 uM, time 1 hour): 14.3% | Fluorescence (% Response) (30 uM, time 3 hours): 12.9% | Fluorescence (% Response) (30 uM, time 6 hours): 9.6%

CCCCCCCCCCCCCCCCOP(=O)(O)Oc1ccccc1CF [Example 10, (16:0)-o-monofluorophosphodiester]
Fluorescence (% Response) [1]: 86.6% | Fluorescence (% Response) (3 uM, time 1 hour): 29.3% | Fluorescence (% Response) (3 uM, time 3 hours): 10.6% | Fluorescence (% Response) (3 uM, time 6 hours): 4.7% | Fluorescence (% Response) (30 uM, time 0 hour): 0.4% | Fluorescence (% Response) (30 uM, time 1 hour): −16.8% | Fluorescence (% Response) (30 uM, time 3 hours): −18.7% | Fluorescence (% Response) (30 uM, time 6 hours): −17.0%

CCCCCCCCCCCCCCCCOP(=O)(O)Oc1ccc(CF)cc1 [Example 4, (16:0)-p-monofluorophosphodiester]
Fluorescence (% Response) [1]: 81.3% | Fluorescence (% Response) (3 uM, time 1 hour): 50.0% | Fluorescence (% Response) (3 uM, time 3 hours): 33.3% | Fluorescence (% Response) (3 uM, time 6 hours): 21.9% | Fluorescence (% Response) (30 uM, time 0 hour): 26.0% | Fluorescence (% Response) (30 uM, time 1 hour): 12.5% | Fluorescence (% Response) (30 uM, time 3 hours): 5.2% | Fluorescence (% Response) (30 uM, time 6 hours): −2.1%

CCCCCCCCCCCCCCOP(=O)(O)Oc1ccc(CF)cc1 [Example 6, (14:0)-p-monofluorophosphodiester]
Fluorescence (% Response) [1]: 95.9% | Fluorescence (% Response) (3 uM, time 1 hour): 61.9% | Fluorescence (% Response) (3 uM, time 3 hours): 45.7% | Fluorescence (% Response) (3 uM, time 6 hours): 32.7% | Fluorescence (% Response) (30 uM, time 0 hour): 48.9% | Fluorescence (% Response) (30 uM, time 1 hour): 31.3% | Fluorescence (% Response) (30 uM, time 3 hours): 25.0% | Fluorescence (% Response) (30 uM, time 6 hours): 18.5%
